# Experimental data published in US8865756B2, “Inhibitors of HCV NS5A” (Presidio Pharmaceuticals, Inc., priority 2008, dated 2014).
# Test system: HCV 1b_Huh-Luc/Neo-ET cell line persistently expressing a bicistronic genotype 1b replicon in Huh 7 cells
# Test: HCV replicon assay (luciferase readout)
# Format: cell-based
# Details: Hepatitis C virus, Huh-7, 72 h, read-out: Inhibition of HCV genotype 1b
# Outline: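 Huh 7 cells carrying a genotype 1b luciferase/neo replicon treated in triplicate for 72 h, then luciferase activity measured. Signal expressed as % of control; EC50 from four-parameter logistic fit, determined several times.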
row,SMILES,EC50
1,O=C(N[C@@H](C(=O)N1CCC[C@H]1c1nc(-c2ccc3cc(C#Cc4cnc([C@@H]5CCCN5C(=O)[C@H](NC(=O)N5CCOCC5)c5ccccc5)[nH]4)ccc3c2)c[nH]1)c1ccccc1)N1CCOCC1 [Compound 808],< 1 nM
2,COC(=O)N[C@@H](Cc1ccccc1)C(=O)N1CCC[C@H]1c1ncc(-c2ccc(C#Cc3ccc4nc([C@@H]5CCCN5C(=O)[C@H](Cc5ccccc5)NC(=O)OC)[nH]c4c3)cc2)[nH]1 [Compound 1045],< 1 nM
3,O=C(N[C@@H](C(=O)N1CCC[C@H]1c1ncc(-c2ccc(C#Cc3ccc(-c4cnc([C@@H]5CCCN5C(=O)[C@@H](c5ccccc5)N5CCOCC5)[nH]4)cc3)cc2)[nH]1)c1ccccc1)C1CC1 [Compound 237],< 1 nM
4,COC(=O)N[C@H](C(=O)N1CCC[C@H]1c1ncc(C#Cc2ccc(-c3ccc4nc([C@@H]5CCCN5C(=O)[C@H](NC(=O)OC)c5ccccc5)[nH]c4c3)nc2)[nH]1)C(C)C [Compound 1087],< 1 nM
5,O=C(N[C@@H](C(=O)N1CCC[C@H]1c1ncc(-c2ccc(C#Cc3ccc(-c4cnc([C@@H]5CCCN5C(=O)[C@H](NC(=O)N5CCOCC5)c5ccccc5)[nH]4)cc3)cc2)[nH]1)c1ccccc1)N1CCOCC1 [Compound 248],< 1 nM
6,CC(C)[C@H](NC(=O)N1CCOCC1)C(=O)N1CCC[C@H]1c1ncc(-c2ccc(C#Cc3ccc(-c4cnc([C@@H]5CCCN5C(=O)[C@@H](NC(=O)N5CCOCC5)C(C)C)[nH]4)cc3)cc2)[nH]1 [Compound 285],> 1000 nM
7,COC(=O)N[C@@H](C(=O)N1CCC[C@H]1c1ncc(C#Cc2ccc3nc([C@@H]4CCCN4C(=O)[C@H](NC(=O)OC)c4ccccc4)[nH]c3c2)[nH]1)c1ccccc1 [Compound 700],< 1 nM
8,COC(=O)N[C@H](C(=O)N[C@@H](C)c1ncc(-c2ccc(C#Cc3ccc(-c4cnc([C@@H]5CCCN5C(=O)[C@@H](NC(=O)OC)C(C)C)[nH]4)cc3)cc2)[nH]1)C(C)C [Compound 275],< 1 nM
9,CN1CCC[C@@H]1C(=O)N[C@@H](C(=O)N1CCC[C@H]1c1ncc(-c2ccc(C#Cc3ccc(-c4cnc([C@@H]5CCCN5C(=O)[C@H](NC(=O)C5CC5)c5ccccc5)[nH]4)cc3)cc2)[nH]1)c1ccccc1 [Compound 216],< 1 nM
10,CC(C)[C@H](NC(=O)N1CC[C@@H](O)C1)C(=O)N1CCC[C@H]1c1ncc(-c2ccc(C#Cc3ccc(-c4cnc([C@@H]5CCCN5C(=O)[C@@H](NC(=O)N5CC[C@@H](O)C5)C(C)C)[nH]4)cc3)cc2)[nH]1 [Compound 968],10 to 999 nM
11,COC(=O)N[C@@H](C(=O)N1CCC[C@H]1c1ncc(-c2ccc(C#Cc3ccc(-c4cnc([C@@H]5CCCN5C(=O)[C@H](NC(=O)N5CCC[C@@H]5C)c5ccccc5)[nH]4)cc3)cc2)[nH]1)c1ccccc1 [Compound 261],< 1 nM
12,COC(=O)N[C@@H](C(=O)N1CCC[C@H]1c1ncc(-c2ccc(C#Cc3ccc(-c4cnc([C@@H]5CCCN5C(=O)Cc5cccnc5)[nH]4)cc3)cc2)[nH]1)c1ccccc1 [Compound 181],< 1 nM
13,COC(=O)N[C@H](C(=O)N[C@@H](C)c1ncc(-c2ccc(C#Cc3ccc(-c4cnc([C@@H]5CCCN5C(=O)[C@@H](c5ccccc5)N(C)C)[nH]4)cc3)cc2)[nH]1)C(C)C [Compound 965],< 1 nM
14,COC(=O)N[C@@H](C(=O)N1CCC[C@H]1c1ncc(-c2ccc(C#Cc3ccc(-c4cnc([C@@H]5CCCN5C(=O)[C@H](NC(=O)[C@H]5CCCO5)c5ccccc5)[nH]4)cc3)cc2)[nH]1)c1ccccc1 [Compound 201],< 1 nM
15,COC(=O)N[C@H](C(=O)N1CCC[C@H]1c1ncc(-c2ccc(C#Cc3ccc4nc([C@@H]5CCCN5C(=O)[C@@H](NC(=O)OC)[C@@H](C)O)[nH]c4c3)cc2)[nH]1)[C@@H](C)O [Compound 863],< 1 nM
16,COC(=O)N[C@@H](C(=O)N1CCC[C@H]1c1ncc(-c2ccc(C#Cc3ccc(-c4cnc([C@@H]5CCCN5C(=O)N5CCOCC5)[nH]4)cc3)cc2)[nH]1)c1ccccc1 [Compound 198],< 1 nM
17,CC(C)[C@H](NC(=O)N1CCC(O)CC1)C(=O)N1CCC[C@H]1c1ncc(-c2ccc(C#Cc3ccc(-c4cnc([C@@H]5CCCN5C(=O)[C@@H](NC(=O)N5CCC(O)CC5)C(C)C)[nH]4)cc3)cc2)[nH]1 [Compound 286],> 1000 nM
18,C[C@@H](NC(=O)C1CC1)C(=O)N1CCC[C@H]1c1ncc(-c2ccc(C#Cc3ccc(-c4cnc([C@@H]5CCCN5C(=O)[C@@H](C)NC(=O)C5CC5)[nH]4)cc3)cc2)[nH]1 [Compound 154],1 to 9.9 nM
19,O=C([C@@H](c1ccccc1)N1CCOCC1)N1CCC[C@H]1c1ncc(-c2ccc(C#Cc3ccc(-c4cnc([C@@H]5CCCN5C(=O)[C@@H](c5ccccc5)N5CCOCC5)[nH]4)cc3)cc2)[nH]1 [Compound 184],< 1 nM
20,COC(=O)N[C@@H](C(=O)N1CCC[C@H]1c1nc2ccc(C#Cc3ccc4nc([C@@H]5CCCN5C(=O)[C@H](NC(=O)OC)c5ccccc5)[nH]c4c3)cc2[nH]1)c1ccccc1 [Compound 851],< 1 nM
21,COC(=O)N[C@H](C(=O)N1CCC[C@H]1c1nc(-c2cnc3cc(C#Cc4ccc(-c5cnc([C@@H]6CCCN6C(=O)[C@@H](NC(=O)OC)c6ccccc6)[nH]5)cc4)ccc3c2)c[nH]1)c1ccccc1 [Compound 1089],1 to 9.9 nM

row,SMILES,EC50
1,CCN(CC)[C@@H](C(=O)N1CCC[C@H]1c1ncc(-c2ccc(C#Cc3ccc(-c4cnc([C@@H]5CCCN5C(=O)[C@H](NC(=O)OC)c5ccccc5)[nH]4)cc3)cc2)[nH]1)c1ccccc1 [Compound 175],< 1 nM
2,COC(=O)N[C@H](C(=O)N1CC[C@H](O)[C@H]1c1ncc(-c2ccc(C#Cc3ccc4nc([C@@H]5CCCN5C(=O)[C@@H](NC(=O)OC)C(C)C)[nH]c4c3)cc2)[nH]1)C(C)C [Compound 1068],< 1 nM
3,CC(C)[C@@H](NC(=O)C1CC1)C(=O)N1CCC[C@H]1C(=O)NCc1ccc(C#Cc2cnc([C@@H]3CCCN3C(=O)[C@H](NC(=O)C3CC3)C(C)C)[nH]2)cc1 [Compound 122],1 to 9.9 nM
4,C[C@@H](NC(=O)[C@@H]1CCCN1C(=O)[C@H](NC(=O)OC(C)(C)C)c1ccccc1)c1ccc(C#Cc2cnc([C@@H]3CCCN3C(=O)[C@H](NC(=O)OC(C)(C)C)c3ccccc3)[nH]2)cc1 [Compound 129],10 to 999 nM
5,COC(=O)N[C@@H](C(=O)N[C@@H](C)c1ncc(-c2ccc(C#Cc3ccc(-c4cnc([C@H](C)NC(=O)[C@H](NC(=O)OC)C(C)C)[nH]4)cc3)cc2)[nH]1)C(C)C [Compound 950],< 1 nM
6,COC(=O)N[C@@H](C(=O)N1CCC[C@H]1c1ncc(-c2ccc(C#Cc3ccc(-c4cnc([C@@H]5CCCN5C(=O)[C@H](NC(=O)N5CC[C@@H](O)C5)c5ccccc5)[nH]4)cc3)cc2)[nH]1)c1ccccc1 [Compound 268],< 1 nM
7,COC(=O)N[C@H](C(=O)N1CCC[C@H]1c1ncc(-c2ccc(C#Cc3ccc(-c4cnc([C@@H]5CCCN5C(=O)[C@H](NC(=O)N5CCC(O)CC5)c5ccccc5)[nH]4)cc3)cc2)[nH]1)C(C)C [Compound 991],1 to 9.9 nM
8,COC(=O)N[C@H](C(=O)N1CCC[C@H]1c1ncc(C#Cc2ccc(-c3cnc([C@@H]4CCCN4C(=O)[C@@H](NC(=O)OC)C(C)C)[nH]3)cc2)[nH]1)C(C)C [Compound 134],< 1 nM
9,COC(=O)N[C@@H](CC(C)C)C(=O)N1CCC[C@H]1c1ncc(-c2ccc(C#Cc3ccc(-c4cnc([C@@H]5CCCN5C(=O)[C@H](CC(C)C)NC(=O)OC)[nH]4)cc3)cc2)[nH]1 [Compound 961],< 1 nM
10,O=C([C@H](O)c1ccccc1)N1CCC[C@H]1c1ncc(-c2ccc(C#Cc3ccc(-c4cnc([C@@H]5CCCN5C(=O)[C@H](O)c5ccccc5)[nH]4)cc3)cc2)[nH]1 [Compound 157],< 1 nM
11,COC(=O)N[C@@H](C(=O)N1CCC[C@H]1c1ncc(-c2ccc(C#Cc3ccc(-c4cnc([C@@H]5CCCN5C(=O)[C@H](C(C)C)N5CCOC5=O)[nH]4)cc3)cc2)[nH]1)c1ccccc1 [Compound 1005],< 1 nM
12,COC(=O)N[C@@H](C(=O)N1CCC[C@H]1c1cc(-c2ccc(C#Cc3ccc(-c4cnc([C@@H]5CCCN5C(=O)[C@H](NC(=O)OC)c5ccccc5)[nH]4)cc3)cc2)n[nH]1)c1ccccc1 [Compound 219],< 1 nM
13,COC(=O)N[C@H](C(=O)N1CCC[C@H]1c1ncc(-c2ccc(C#Cc3ccc(-c4cnc([C@@H]5CCCN5C(=O)[C@H](C(C)C)N5CCOC5=O)[nH]4)cc3)cc2)[nH]1)C(C)C [Compound 996],< 1 nM
14,COC(=O)N[C@@H](C(=O)N1CCC[C@H]1c1ncc(-c2ccc(C#Cc3ccc(-c4cnc([C@@H]5CCCN5C(=O)C5CCN(C)CC5)[nH]4)cc3)cc2)[nH]1)c1ccccc1 [Compound 182],< 1 nM
15,COC(=O)N[C@@H](C(=O)N1CCC[C@H]1c1ncc(-c2ccc(C#Cc3ccc(-c4cnc([C@@H]5CCCN5C(=O)[C@@H](c5ccccc5)N5CCCC5)[nH]4)cc3)cc2)[nH]1)c1ccccc1 [Compound 178],< 1 nM
16,O=C(N[C@@H](C(=O)N1CCC[C@H]1c1ncc(C#Cc2ccc(-c3ccc(-c4cnc([C@@H]5CCCN5C(=O)[C@H](NC(=O)N5CCOCC5)c5ccccc5)[nH]4)cc3)cc2)[nH]1)c1ccccc1)N1CCOCC1 [Compound 761],< 1 nM
17,COC(=O)N[C@@H](C(=O)N[C@H](c1ncc(-c2ccc(C#Cc3ccc(-c4cnc([C@@H]5CCCN5C(=O)[C@H](NC(=O)OC)c5ccccc5)[nH]4)cc3)cc2)[nH]1)C(C)C)c1ccccc1 [Compound 282],< 1 nM
18,O=C(N[C@@H](C(=O)N1CCC[C@H]1c1ncc(-c2ccc(C#Cc3ccc(-c4cnc([C@@H]5CCCN5C(=O)[C@H](NC(=O)OC5CCOCC5)c5ccccc5)[nH]4)c(F)c3)cc2)[nH]1)c1ccccc1)OC1CCOCC1 [Compound 1014],< 1 nM
19,COC(=O)N[C@@H](Cc1cnc[nH]1)C(=O)N1CCC[C@H]1c1ncc(-c2ccc(C#Cc3ccc4nc([C@@H]5CCCN5C(=O)[C@H](Cc5cnc[nH]5)NC(=O)OC)[nH]c4c3)cc2)[nH]1 [Compound 1048],1 to 9.9 nM
20,CC(C)[C@H](NC(=O)N1CCCC1)C(=O)N1CCC[C@H]1c1ncc(-c2ccc(C#Cc3ccc(-c4cnc([C@@H]5CCCN5C(=O)[C@@H](NC(=O)N5CCCC5)C(C)C)[nH]4)cc3)cc2)[nH]1 [Compound 288],> 1000 nM
